Measured values reported in patent US9650395B2, “Antibacterial compounds and methods for use” (PTC Therapeutics, Inc., priority 2011, dated 2017).
In brackets after ≈: the same amount, converted by molar mass. Where two headings read alike, the source gives them in different places.

Legend:
[1] = system: super sensitive Gram-negative Escherichia coli (E. coli) BAS849; experiment: Antibacterial activity, microbroth dilution MIC, E. coli BAS849; type: cell-based; details: Escherichia coli, read-out: MIC, BAS849
[2] = system: control Gram-negative E. coli 25922 strain; experiment: Antibacterial activity, microbroth dilution MIC, E. coli 25922; type: cell-based, Escherichia coli; details: Escherichia coli; E. coli 25922, microbroth dilution; read-out: MIC, 25922
[3] = system: Gram-positive Staphylococcus aureus (S. aureus) 29213; experiment: Antibacterial activity, microbroth dilution MIC, S. aureus 29213; type: cell-based; details: Staphylococcus aureus; S. aureus 29213, microbroth dilution; read-out: MIC, 29213
[4] = system: quinolone resistant E. coli LZ3111; experiment: Antibacterial activity, MIC, quinolone resistant E. coli LZ3111; type: cell-based, Escherichia coli; details: Escherichia coli, read-out: MIC, LZ3111
Source text: The antibacterial activity from a microbroth dilution method may be presented as the minimum inhibitory concentration (MIC in […]). The MIC value is the lowest concentration of a drug which prevents macroscopically visible bacterial growth under test conditions.
Mutations in these regions are known to confer a high level resistance to the quinolone class of antibiotics.

[5] = E. coli BAS849, microbroth dilution

SMILES: CCc1c(-c2ccc(N3CCC(OC)CC3)cc2)[nH]c(=O)c(C(=O)O)c1O [Cpd 282, 5-ethyl-4-hydroxy-6-[4-(4-methoxypiperidin-1-yl)phenyl]-2-oxo-1,2-dihydropyridine-3-carboxylic acid]
- MIC [1, 5]: < 1 mg/L
- MIC [2]: 12.5 to 150 mg/L (≈ 33.6 to 403 µM)
- MIC [3]: 12.5 to 150 mg/L (≈ 33.6 to 403 µM)
- MIC [4]: 12.5 to 150 mg/L (≈ 33.6 to 403 µM)

SMILES: CCc1cc(C(=O)O)c(=O)[nH]c1-c1ccc(N2CCCCC2)cc1C [Cpd 52, 5-ethyl-6-[2-methyl-4-(piperidin-1-yl)phenyl]-2-oxo-1,2-dihydropyridine-3-carboxylic acid]
- MIC [1, 5]: 12.5 to 150 mg/L (≈ 36.7 to 441 µM)
- MIC [2]: 12.5 to 150 mg/L (≈ 36.7 to 441 µM)
- MIC [3]: 12.5 to 150 mg/L (≈ 36.7 to 441 µM)

SMILES: CCc1cc(C(=O)O)c(=O)[nH]c1-c1ccc(OC(C)(C)C)cc1 [Cpd 311, 6-(4-tert-butoxyphenyl)-5-ethyl-2-oxo-1,2-dihydropyridine-3-carboxylic acid]
- MIC [1, 5]: 3.5 to 12.5 mg/L (≈ 11.1 to 39.6 µM)
- MIC [2]: 12.5 to 150 mg/L (≈ 39.6 to 476 µM)
- MIC [3]: 12.5 to 150 mg/L (≈ 39.6 to 476 µM)

SMILES: CCc1c(-c2ccc(Cl)cc2)[nH]c(=O)c(C(=O)O)c1O [Cpd 77, 6-(4-chlorophenyl)-5-ethyl-4-hydroxy-2-oxo-1,2-dihydropyridine-3-carboxylic acid]
- MIC [1, 5]: 1 to 3.5 mg/L (≈ 3.4 to 11.9 µM)
- MIC [2]: 12.5 to 150 mg/L (≈ 42.6 to 511 µM)
- MIC [3]: 3.5 to 12.5 mg/L (≈ 11.9 to 42.6 µM)

SMILES: CCc1cc(C(=O)O)c(=O)[nH]c1-c1ccc(OC)cc1OC [Cpd 34, 6-(2,4-dimethoxyphenyl)-5-ethyl-2-oxo-1,2-dihydropyridine-3-carboxylic acid]
- MIC [1, 5]: 12.5 to 150 mg/L (≈ 41.2 to 495 µM)
- MIC [2]: 12.5 to 150 mg/L (≈ 41.2 to 495 µM)
- MIC [3]: 12.5 to 150 mg/L (≈ 41.2 to 495 µM)

SMILES: CCc1c(-c2ccnn2C)[nH]c(=O)c(C(=O)O)c1O [Cpd 345, 5-ethyl-4-hydroxy-6-(1-methyl-1H-pyrazol-5-yl)-2-oxo-1,2-dihydropyridine-3-carboxylic acid]
- MIC [1, 5]: 12.5 to 150 mg/L (≈ 47.5 to 570 µM)
- MIC [2]: 12.5 to 150 mg/L (≈ 47.5 to 570 µM)
- MIC [3]: 12.5 to 150 mg/L (≈ 47.5 to 570 µM)

SMILES: CCc1cc(C(=O)O)c(=O)[nH]c1-c1ccc(OC)cc1C [Cpd 33, 5-ethyl-6-(4-methoxy-2-methylphenyl)-2-oxo-1,2-dihydropyridine-3-carboxylic acid]
- MIC [1, 5]: 12.5 to 150 mg/L (≈ 43.5 to 522 µM)
- MIC [2]: 12.5 to 150 mg/L (≈ 43.5 to 522 µM)
- MIC [3]: 12.5 to 150 mg/L (≈ 43.5 to 522 µM)

SMILES: CCc1cc(C(=O)O)c(=O)[nH]c1-c1ccc(C)cc1 [Cpd 27, 5-ethyl-6-(4-methylphenyl)-2-oxo-1,2-dihydropyridine-3-carboxylic acid]
- MIC [1, 5]: < 1 mg/L
- MIC [2]: 12.5 to 150 mg/L (≈ 48.6 to 583 µM)
- MIC [3]: 12.5 to 150 mg/L (≈ 48.6 to 583 µM)

SMILES: CCc1cc(C(=O)OC)c(=O)[nH]c1-c1ccc(N2CCC(OCc3ccccc3)C2)cc1 (stereo not shown) [Cpd 127, methyl 6-{4-[3-(benzyloxy)pyrrolidin-1-yl]phenyl}-5-ethyl-2-oxo-1,2-dihydropyridine-3-carboxylate]
- MIC [1, 5]: 12.5 to 150 mg/L (≈ 28.9 to 347 µM)
- MIC [2]: 12.5 to 150 mg/L (≈ 28.9 to 347 µM)
- MIC [3]: 12.5 to 150 mg/L (≈ 28.9 to 347 µM)

SMILES: CCc1cc(C(=O)O)c(=O)[nH]c1-c1ccc(N2CC(NC(=O)OCc3ccccc3)C2)cc1 [Cpd 171, 6-[4-(3-{[(benzyloxy)carbonyl]amino}azetidin-1-yl)phenyl]-5-ethyl-2-oxo-1,2-dihydropyridine-3-carboxylic acid]
- MIC [1, 5]: 3.5 to 12.5 mg/L (≈ 7.82 to 27.9 µM)
- MIC [2]: 12.5 to 150 mg/L (≈ 27.9 to 335 µM)
- MIC [3]: 12.5 to 150 mg/L (≈ 27.9 to 335 µM)

SMILES: CCc1c(-c2cnn(C)c2)[nH]c(=O)c(C(=O)O)c1O [Cpd 347, 5-ethyl-4-hydroxy-6-(1-methyl-1H-pyrazol-4-yl)-2-oxo-1,2-dihydropyridine-3-carboxylic acid]
- MIC [1, 5]: 1 to 3.5 mg/L (≈ 3.8 to 13.3 µM)
- MIC [2]: 3.5 to 12.5 mg/L (≈ 13.3 to 47.5 µM)
- MIC [3]: 12.5 to 150 mg/L (≈ 47.5 to 570 µM)

SMILES: CCc1cc(C(=O)O)c(=O)[nH]c1-c1ccc(N2CC3OCCN(Cc4ccccc4)C3C2)cc1.O=C(O)C(F)(F)F (stereo not shown) [Cpd 180, 6-[4-(4-benzylhexahydropyrrolo[3,4-b][1,4]oxazin-6(2H)-yl)phenyl]-5-ethyl-2-oxo-1,2-dihydropyridine-3-carboxylic acid trifluoroacetate]
- MIC [1]: 1 to 3.5 mg/L
- MIC [2]: 12.5 to 150 mg/L
- MIC [3]: 12.5 to 150 mg/L

SMILES: CCc1c(-c2ccc(N3CCCC3)c(C)c2)[nH]c(=O)c(C(=O)O)c1O [Cpd 71, 5-ethyl-4-hydroxy-6-[3-methyl-4-(pyrrolidin-1-yl)phenyl]-2-oxo-1,2-dihydropyridine-3-carboxylic acid]
- MIC [1, 5]: 1 to 3.5 mg/L (≈ 2.92 to 10.2 µM)
- MIC [2]: 12.5 to 150 mg/L (≈ 36.5 to 438 µM)
- MIC [3]: 3.5 to 12.5 mg/L (≈ 10.2 to 36.5 µM)

SMILES: CCc1cc(C(=O)O)c(=O)[nH]c1-c1ccccc1N(C)C [Cpd 54, 6-[2-(dimethylamino)phenyl]-5-ethyl-2-oxo-1,2-dihydropyridine-3-carboxylic acid]
- MIC [1, 5]: 12.5 to 150 mg/L (≈ 43.7 to 524 µM)
- MIC [2]: 12.5 to 150 mg/L (≈ 43.7 to 524 µM)
- MIC [3]: 12.5 to 150 mg/L (≈ 43.7 to 524 µM)
